Where a name gives a salt, the structure may show the parent alone.
Assays:
[1] = system: ultrapure calf thymus DNA 13 kb; experiment: DNA compaction: electrophoresis in agarose gel with ethidium bromide as stain; format: binding; conditions: control substances, wells B-H and b (10 λ to 1 λ diluted 1:10)
HeLa cells = experiment: Cell penetration of FITC-labeled compounds by fluorescence microscopy; format: cell-based, human; conditions: 100 or 200 μM, 1 h incubation at 37° C.
5 kbp DNA = experiment: Atomic force microscopy (AFM, tapping mode) of DNA incubated with compound; conditions: 5 kbp DNA incubated with compound
Description: The DNA-bguan interaction was confirmed with UV absorption spectra. The absorption maximum and the shape of the absorbance curve of DNA changed appreciably in the presence of 1 equivalent bguan, indicating a distinct change of its structure in buffer solution. In addition, when a 5 kbp DNA was examined under the atomic force microscope (AFM) in the tapping mode, nematoid (long warm-like) formations of up to 1 μm were observed. […] This actually proves that DNA compacts not in big aggregates but in nanoparticles of size suitable to cross a cell membrane.

## N=C(N)N [guanidine hydrochloride]
[1]
  interaction with DNA under the electrophoresis conditions: do not display any kind of interaction with DNA

## fluorescein isothiocyanate [treated FITC]
HeLa cells
  fluorescence inside the cytoplasm: did not show any fluorescence

## NCCNCC1OC2OC3C(CNCCN)OC(OC4C(CNCCN)OC(OC5C(CNCCN)OC(OC6C(CNCCN)OC(OC7C(CNCCN)OC(OC8C(CNCCN)OC(OC1C(O)C2O)C(O)C8O)C(O)C7O)C(O)C6O)C(O)C5O)C(O)C4O)C(O)C3O (stereo not drawn) [bpen, Heptakis(6-deoxy-6-aminoethylamino)-β-cyclodextrin]
5 kbp DNA
  elongated (nematoid) DNA forms under AFM: complete absence of the elongated forms
5 kbp DNA; AFM
  diameter of round DNA nanoparticles: ~40 nm

## OC[C@H]1O[C@@H]2O[C@H]3[C@H](O)[C@@H](O)[C@@H](O[C@H]4[C@H](O)[C@@H](O)[C@@H](O[C@H]5[C@H](O)[C@@H](O)[C@@H](O[C@H]6[C@H](O)[C@@H](O)[C@@H](O[C@H]7[C@H](O)[C@@H](O)[C@@H](O[C@H]8[C@H](O)[C@@H](O)[C@@H](O[C@H]1[C@H](O)[C@H]2O)O[C@@H]8CO)O[C@@H]7CO)O[C@@H]6CO)O[C@@H]5CO)O[C@@H]4CO)O[C@@H]3CO [β-cyclodextrin]
[1]
  interaction with DNA under the electrophoresis conditions: do not display any kind of interaction with DNA

Reference: patent US7834174B2, “Per-6-guanidino-, alkylamino-cyclodextrins, methods of their synthesis and their use for the compaction of DNA and intercellular delivery” (priority 2004, dated 2010)
